The target of assay [1] is Prothrombin (Homo sapiens, UniProt P00734). The experiment in a line: Inhibition of thrombin by dixon plot method.
In assay [2] the target is Vitamin K-dependent protein C (Homo sapiens, UniProt P04070). Description: Inhibition of activated protein C by dixon plot method.
The target in assay [3] is Plasminogen (Homo sapiens, UniProt P00747). The experiment in a line: Inhibition of plasmin by dixon plot method.
The target in assay [4] is Plasma kallikrein (Homo sapiens, UniProt P03952). The experiment in a line: Inhibition of plasma kallikrein by dixon plot method.
Sequence of Plasma kallikrein (P03952 20-390 limits assumed): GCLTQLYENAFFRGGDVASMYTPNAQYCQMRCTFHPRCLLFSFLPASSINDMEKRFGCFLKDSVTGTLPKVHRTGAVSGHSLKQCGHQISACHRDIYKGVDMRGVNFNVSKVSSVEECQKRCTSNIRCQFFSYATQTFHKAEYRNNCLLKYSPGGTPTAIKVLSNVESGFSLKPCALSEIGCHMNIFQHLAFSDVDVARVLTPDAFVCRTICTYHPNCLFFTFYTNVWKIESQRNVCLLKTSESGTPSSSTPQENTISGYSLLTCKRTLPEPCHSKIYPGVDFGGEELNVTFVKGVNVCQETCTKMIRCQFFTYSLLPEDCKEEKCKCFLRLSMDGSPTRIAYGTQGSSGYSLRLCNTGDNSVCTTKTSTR
Sequence of Plasma kallikrein (P03952 391-638 limits assumed): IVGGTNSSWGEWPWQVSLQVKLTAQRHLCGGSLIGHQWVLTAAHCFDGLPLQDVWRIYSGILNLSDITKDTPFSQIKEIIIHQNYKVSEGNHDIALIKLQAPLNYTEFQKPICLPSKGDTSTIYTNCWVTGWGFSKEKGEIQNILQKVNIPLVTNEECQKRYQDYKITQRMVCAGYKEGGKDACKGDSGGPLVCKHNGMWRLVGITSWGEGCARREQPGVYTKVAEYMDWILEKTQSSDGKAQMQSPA
The target in assay [5] is Coagulation factor X (Homo sapiens, UniProt P00742). The experiment in a line: Inhibition of factor 10a by dixon plot method.
Sequence of Coagulation factor X (P00742 41-179 limits assumed): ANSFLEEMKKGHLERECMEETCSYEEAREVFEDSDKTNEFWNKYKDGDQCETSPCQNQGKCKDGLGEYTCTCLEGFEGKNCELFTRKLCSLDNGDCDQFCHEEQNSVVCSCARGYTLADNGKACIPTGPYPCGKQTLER
Sequence of Coagulation factor X (P00742 235-488 limits assumed): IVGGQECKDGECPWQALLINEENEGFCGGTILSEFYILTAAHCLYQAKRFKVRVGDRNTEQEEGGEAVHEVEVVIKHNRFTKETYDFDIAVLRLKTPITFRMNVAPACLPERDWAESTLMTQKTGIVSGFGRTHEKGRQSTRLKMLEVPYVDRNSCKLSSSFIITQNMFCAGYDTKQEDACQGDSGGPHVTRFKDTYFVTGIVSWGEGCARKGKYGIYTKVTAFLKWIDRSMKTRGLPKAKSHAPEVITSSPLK

pKi: −log10 of the molar value. *1 amine or outer side, *2 acyl side, *3 side chain or, on linkers, in order; H or OH if unused. Where a SMILES comes first, the peptide text is derived from it. [ ]: non-standard residue; d: D form. The star is where a group is joined. X1 = O=C1[C@@H](CCC(=O)[*:2])CCC[C@H]1N[*:1]; Met(O2) = CS(=O)(=O)CC[C@H](N)C(=O)O; Cbz = O=C(OCc1ccccc1)*

For orientation: pKi means the negative decadic logarithm of the Ki, by convention in mol/L.

Sequence of Vitamin K-dependent protein C (P04070 43-197 limits assumed): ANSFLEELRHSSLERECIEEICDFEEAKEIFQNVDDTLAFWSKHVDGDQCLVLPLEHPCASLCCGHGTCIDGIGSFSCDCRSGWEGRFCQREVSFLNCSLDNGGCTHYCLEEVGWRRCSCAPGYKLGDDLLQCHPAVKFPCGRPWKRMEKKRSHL
Sequence of Vitamin K-dependent protein C (P04070 212-461 limits assumed): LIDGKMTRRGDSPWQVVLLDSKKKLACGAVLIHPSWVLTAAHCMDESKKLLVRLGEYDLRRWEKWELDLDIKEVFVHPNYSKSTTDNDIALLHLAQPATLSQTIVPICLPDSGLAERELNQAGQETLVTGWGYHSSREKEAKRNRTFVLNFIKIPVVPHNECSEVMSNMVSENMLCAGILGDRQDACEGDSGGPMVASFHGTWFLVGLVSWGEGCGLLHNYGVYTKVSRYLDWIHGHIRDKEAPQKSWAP
Sequence of Plasminogen (P00747 97-580 limits assumed): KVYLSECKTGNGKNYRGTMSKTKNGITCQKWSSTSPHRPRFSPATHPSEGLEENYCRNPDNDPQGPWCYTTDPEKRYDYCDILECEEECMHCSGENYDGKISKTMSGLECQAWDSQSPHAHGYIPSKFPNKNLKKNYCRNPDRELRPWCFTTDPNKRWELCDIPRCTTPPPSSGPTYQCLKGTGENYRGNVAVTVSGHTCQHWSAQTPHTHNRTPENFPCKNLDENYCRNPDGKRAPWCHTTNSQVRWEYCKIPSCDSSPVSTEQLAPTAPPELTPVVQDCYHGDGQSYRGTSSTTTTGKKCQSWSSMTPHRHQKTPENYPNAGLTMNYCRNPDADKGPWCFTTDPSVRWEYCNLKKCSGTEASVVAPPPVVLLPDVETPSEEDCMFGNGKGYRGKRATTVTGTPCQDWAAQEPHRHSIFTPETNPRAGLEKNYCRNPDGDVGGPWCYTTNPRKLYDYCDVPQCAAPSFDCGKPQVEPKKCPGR
Sequence of Plasminogen (P00747 581-810 limits assumed): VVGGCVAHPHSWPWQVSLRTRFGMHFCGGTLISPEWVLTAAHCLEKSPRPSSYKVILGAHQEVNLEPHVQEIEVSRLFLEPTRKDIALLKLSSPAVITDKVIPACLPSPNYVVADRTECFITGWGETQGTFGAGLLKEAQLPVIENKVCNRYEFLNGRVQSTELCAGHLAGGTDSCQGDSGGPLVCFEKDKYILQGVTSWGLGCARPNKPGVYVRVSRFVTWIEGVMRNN

On to `N=C(N)c1ccc(CNC(=O)[C@@H]2Cc3ccc(cc3)CNC(=O)Cc3ccc(cc3)CC(=O)NCc3ccc(cc3)C[C@@H](NS(=O)(=O)Cc3ccccc3)C(=O)N2)cc1`, for which the pKi was 5.19 in assay [1] and 4.92 in assay [2].

`N=C(N)NCc1cccc(C[C@H](NC(=O)[C@@H](CCCc2ccccc2)NS(=O)(=O)Cc2cccc(C(=O)O)c2)C(=O)NCc2ccc(C(=N)N)cc2)c1`: the pKi in assay [3] was 9.09; in assay [4] it was 10.12; in assay [1], 6.18; in assay [5], 7.38; in assay [2], 9.21.

`N=C(N)c1ccc(CNC(=O)[C@@H]2CCC(=O)NCc3cccc(c3)CNC(=O)CC[C@@H](NS(=O)(=O)Cc3ccccc3)C(=O)N2)cc1`: the pKi in assay [1] is 5.69; in assay [2], 8.29.

Turning to `N=C(N)c1ccc(CNC(=O)[C@@H]2Cc3ccc(cc3)CNC(=O)CN3CCN(CC3)CC(=O)NCc3ccc(cc3)C[C@@H](NS(=O)(=O)Cc3ccccc3)C(=O)N2)cc1`, the pKi in assay [1] and in assay [2] was 5.45 in each case.

For the compound `N=C(N)c1ccc(CNC(=O)[C@@H]2Cc3cccc(c3)CNC(=O)Cc3ccc(cc3)CC(=O)NCc3cccc(c3)C[C@@H](NS(=O)(=O)Cc3ccccc3)C(=O)N2)cc1`, the pKi in assay [1] is 7.34; in assay [2], 6.25.

Consider `N=C(N)c1ccc(CNC(=O)[C@@H]2Cc3cccc(c3)CNC(=O)CN3CCN(CC3)CC(=O)NCc3cccc(c3)C[C@@H](NS(=O)(=O)Cc3ccccc3)C(=O)N2)cc1`, for which the pKi in assay [4] is 7.60; in assay [1], 8.14; in assay [5] it was 7.68; in assay [2], 7.32.

On to `N=C(N)c1ccc(CNC(=O)[C@@H]2Cc3cccc(c3)CNC(=O)Cc3cccc(c3)CC(=O)NCc3cccc(c3)C[C@@H](NS(=O)(=O)Cc3ccccc3)C(=O)N2)cc1`, for which the pKi in assay [1] is 7.57; in assay [2] it was 6.65.

Take `N=C(N)c1ccc(CNC(=O)[C@@H]2Cc3ccc(cc3)OCCCCOc3ccc(cc3)C[C@@H](NS(=O)(=O)Cc3ccccc3)C(=O)N2)cc1`: the pKi in assay [3] is 8.96; in assay [4], 7.72; in assay [1], 6.29; in assay [5], 6.11; in assay [2] it was 5.34.

With `N=C(N)c1ccc(CNC(=O)[C@@H]2Cc3cn(nn3)Cc3cccc(c3)Cn3cc(nn3)C[C@@H](NS(=O)(=O)Cc3ccccc3)C(=O)N2)cc1`, the pKi is 5.02 in assay [1] and 5.52 in assay [2].

With `N=C(N)c1ccc(CNC(=O)[C@@H]2Cc3cn(nn3)Cc3cccc(n3)Cn3cc(nn3)C[C@@H](NS(=O)(=O)Cc3ccccc3)C(=O)N2)cc1`, the results for the pKi in assay [1] and in assay [2] were 5.21 and 5.08, respectively.

On to `N=C(N)c1ccc(CNC(=O)[C@@H]2Cc3cn(nn3)Cc3cccc([n+]3[O-])Cn3cc(nn3)C[C@@H](NS(=O)(=O)Cc3ccccc3)C(=O)N2)cc1`, for which the pKi in assay [3] was 8.05; in assay [4], 7.17; in assay [1] it was 5.93; in assay [5], 5.51; in assay [2], less than 5.22.

With `CCCCCCCCNC(=O)[C@@H](Cc1ccc(OCc2ccncc2)cc1)NC(=O)[C@H]1CC[C@H](CN)CC1`, in assay [3], the pKi was 6.28.

As to `CC(=O)N[C@@H](CCCNC(=N)N)C(=O)N[C@@H](CCS(C)(=O)=O)C(=O)N[C@@H](Cc1ccc(O)cc1)C(=O)N[C@H](C=O)CCCNC(=N)N` (Ac-R[Met(O2)]YR-aldehyde), the pKi in assay [3] is 8.51.

Consider `O=C(CC[C@H]1CCC[C@@H](NC(=O)[C@H](Cc2c[nH]c3ccccc23)NC(=O)[C@H](Cc2c[nH]c3ccccc23)NC(=O)OCc2ccccc2)C1=O)N[C@@H](Cc1c[nH]c2ccccc12)C(=O)N[C@@H](Cc1ccc(O)cc1)C(=O)O` (Cbz-WW[X1]WY-OH), for which the pKi in assay [3] is 5.57.

For the compound `N=C(N)c1ccc(CNC(=O)[C@@H]2Cc3ccc(cc3)OCC=CCOc3ccc(cc3)C[C@@H](NS(=O)(=O)Cc3ccccc3)C(=O)N2)cc1` (mixture of isomers), the figures for the pKi in assay [1] and in assay [2] were 6.86 and 7.05, respectively.
